Laboratory results from US10307413B2, “Tetrahydro- and dihydro-isoquinoline PRMT5 inhibitors and uses thereof” (Epizyme, Inc., priority 2013, dated 2019).
Read-outs that look alike come from different tables or passages of the source.

Legend:
PRMT5/MEP50 = PRMT5/MEP50 (Homo sapiens (Human), UniProt O14744); experiment: PRMT5 Biochemical Assay (PRMT5/MEP50 enzyme assay on peptide substrate, 3H-SAM Flashplate)
Text: S-adenosylmethionine (SAM), S-adenosylhomocysteine (SAH), bicine, KCl, Tween20, dimethylsulfoxide (DMSO), bovine skin gelatin (BSG), and Tris(2-carboxyethyl)phosphine hydrochloride solution (TCEP) were purchased from Sigma-Aldrich at the highest level of purity possible. ^3H-SAM was purchase from American Radiolabeled Chemicals with a specific activity of 80 Ci/mmol. 384-well streptavidin Flashplates were purchased from PerkinElmer.
Peptide representative of human histone H4 residues 1-15 was synthesized with a C-terminal linker-affinity tag motif and a C-terminal amide cap by 21st Century Biochemicals.
The amplified genes were sublconed into pENTR/D/TEV (Life Technologies) and subsequently transferred by Gateway™ attL×attR recombination to pDEST8 baculovirus expression vector (Life Technologies).
Protein over-expression was accomplished by infecting exponentially growing Spodoptera frugiperda (SF9) cell culture at 1.2×10^6 cell/ml with a 5000 fold dilution of BIIC stock. Infections were carried out at 27° C. for 72 hours, harvested by centrifugation, and stored at −80° C. for purification.
Flag-PRMT5/6His-MeP50 was eluted with 300 mM Imidazole in the same buffer.
General Procedure for PRMT5/MEP50 Enzyme Assays on Peptide Substrates.
The assays were all performed in a buffer consisting of 20 mM Bicine (pH=7.6), 1 mM TCEP, 0.005% BSG, and 0.002% Tween20, prepared on the day of use. […] DMSO (1 ul) was added to Columns 11, 12, 23, 24, rows A-H for the maximum signal control and 1 ul of SAH, a known product and inhibitor of PRMT5/MEP50, was added to columns 11, 12, 23, 24, rows I-P for the minimum signal control. A cocktail (40 ul) containing the PRMT5/MEP50 enzyme and the peptide was added by Multidrop Combi (Thermo-Fisher). The compounds were allowed to incubate with PRMT5/MEP50 for 30 min at 25 degrees Celsius, then a cocktail (10 ul) containing ^3H-SAM was added to initiate the reaction (final volume=51 ul). […] The assays were stopped by the addition of non-radioactive SAM (10 ul) to a final concentration of 600 uM, which dilutes the ^3H-SAM to a level where its incorporation into the peptide substrate is no longer detectable. 50 ul of the reaction in the 384-well polypropylene plate was then transferred to a 384-well Flashplate and the biotinylated peptides were allowed to bind to the streptavidin surface for at least 1 hour before being washed three times with 0.1% Tween20 in a Biotek ELx405 plate washer. The plates were then read in a PerkinElmer TopCount plate reader to measure the quantity of ^3H-labeled peptide bound to the Flashplate surface, measured as disintegrations per minute (dpm) or alternatively, referred to as counts per minute (cpm).
[formula] [formula] Where dpm=disintegrations per minute, cmpd=signal in assay well, and min and max are the respective minimum and maximum signal controls.
[formula] [formula] Where top and bottom are the normally allowed to float, but may be fixed at 100 or 0 respectively in a 3-parameter fit. The Hill Coefficient normally allowed to float but may also be fixed at 1 in a 3-parameter fit. Y is the % inhibition and X is the compound concentration.

[1] = test system: symmetric di-methyl arginine in Z-138 cells; experiment: Z-138 Methylation Assay (In Cell Western for symmetric di-methyl arginine and DNA content); type: cell-based; conditions: Homo sapiens, read-out: ICW EC50
Outline: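 Z-138 cells (50,000 cells/mL) treated with compound 96 h at 37 °C, then fixed and stained for symmetric di-methyl arginine (800 nm) with DRAQ5 DNA counterstain (700 nm) on Licor Odyssey.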

Z-138 cell line = experiment: Z-138 Proliferation Assay (Cell Titer Glo, 5 days); type: cell-based; conditions: Homo sapiens, 120 h, Z-138 cells, 5 days, read-out: Proliferation EC50
Outline: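 Z-138 cells exposed 5 days at 37 °C, 5% CO2 to nine-point 3-fold dilutions (final top 20 μM, 0.2% DMSO), in triplicate. Viability read as ATP by CellTiter-Glo luminescence; IC50 from 4-parameter fit of normalized dose-response curves.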

PRMT5/MEP50, sequence (O14744 other isoform, or with tags, fused parts or gaps): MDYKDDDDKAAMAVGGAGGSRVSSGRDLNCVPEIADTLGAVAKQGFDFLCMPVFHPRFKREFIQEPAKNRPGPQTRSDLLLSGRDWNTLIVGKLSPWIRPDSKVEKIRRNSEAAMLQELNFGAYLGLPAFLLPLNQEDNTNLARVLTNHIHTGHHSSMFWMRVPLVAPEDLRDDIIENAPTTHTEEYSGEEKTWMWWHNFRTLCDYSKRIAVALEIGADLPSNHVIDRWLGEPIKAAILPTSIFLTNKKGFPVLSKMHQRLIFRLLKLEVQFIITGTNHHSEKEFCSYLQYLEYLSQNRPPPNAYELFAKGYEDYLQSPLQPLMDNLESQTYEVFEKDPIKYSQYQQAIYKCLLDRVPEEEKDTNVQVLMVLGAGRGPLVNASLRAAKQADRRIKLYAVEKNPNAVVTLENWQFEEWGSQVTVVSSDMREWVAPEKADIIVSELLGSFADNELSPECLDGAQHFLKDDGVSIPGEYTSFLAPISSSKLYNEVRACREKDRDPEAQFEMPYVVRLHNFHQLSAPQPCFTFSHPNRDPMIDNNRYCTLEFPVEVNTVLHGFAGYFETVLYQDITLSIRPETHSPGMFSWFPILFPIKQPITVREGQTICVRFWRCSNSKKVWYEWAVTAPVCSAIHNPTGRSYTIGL
PRMT5/MEP50, sequence (Q9BQA1 other isoform, or with tags, fused parts or gaps partner): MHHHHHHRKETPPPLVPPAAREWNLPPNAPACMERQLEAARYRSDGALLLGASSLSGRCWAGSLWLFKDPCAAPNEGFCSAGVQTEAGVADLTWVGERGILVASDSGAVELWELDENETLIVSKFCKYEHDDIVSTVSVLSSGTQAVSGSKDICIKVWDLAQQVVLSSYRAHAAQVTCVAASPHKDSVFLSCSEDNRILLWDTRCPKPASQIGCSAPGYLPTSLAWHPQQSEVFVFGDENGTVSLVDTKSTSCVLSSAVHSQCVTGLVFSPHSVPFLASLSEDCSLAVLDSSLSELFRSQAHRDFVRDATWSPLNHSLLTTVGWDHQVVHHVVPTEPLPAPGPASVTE

Structure (SMILES)	IC50 (PRMT5/MEP50) [nM]	EC50 [1] [nM]	EC50 (Z-138 cell line) [nM]	IC50 (PRMT5/MEP50; PRMT5 biochemical assay) [nM]	further results
O=C(NCC(O)CN1CCc2ccccc2C1)c1ccccc1-c1ccccn1 (centres unmarked) [Compound 12, N-(3-(3,4-dihydroisoquinolin-2(1H)-yl)-2-hydroxypropyl)-2-(pyridin-2-yl)benzamide]	101 to 1000	1000 to 10000	> 20000	–	–
O=C(NCC(O)CN1CCc2ccccc2C1)c1ccccn1 (centres unmarked) [Compound 17, N-(3-(3,4-dihydroisoquinolin-2(1H)-yl)-2-hydroxypropyl)picolinamide]	101 to 1000	101 to 1000	> 20000	–	–
O=C(NCC(O)CN1CCc2ccccc2C1)c1cccnc1 (centres unmarked) [Compound 18]	101 to 1000	101 to 1000	10000 to 50000	–	–
NS(=O)(=O)c1ccc(C(=O)NCC(O)CN2CCc3ccccc3C2)cc1 (centres unmarked) [Compound 21, N-(3-(3,4-dihydroisoquinolin-2(1H)-yl)-2-hydroxypropyl)-4-sulfamoylbenzamide]	101 to 1000	101 to 1000	> 20000	–	–
NC(=O)c1ccc(C(=O)NCC(O)CN2CCc3ccccc3C2)cc1 (centres unmarked) [Compound 22]	101 to 1000	101 to 1000	> 20000	–	–
CC(=O)Nc1ccc(C(=O)NCC(O)CN2CCc3ccccc3C2)cc1 (centres unmarked) [Compound 23, 4-acetamido-N-(3-(3,4-dihydroisoquinolin-2(1H)-yl)-2-hydroxypropyl)benzamide]	101 to 1000	101 to 1000	> 20000	–	–
NC(=O)c1cccc(C(=O)NCC(O)CN2CCc3ccccc3C2)c1 (centres unmarked) [Compound 25]	101 to 1000	1000 to 10000	> 20000	–	–
CC(=O)Nc1cccc(C(=O)NCC(O)CN2CCc3ccccc3C2)c1 (centres unmarked) [Compound 26]	101 to 1000	101 to 1000	10000 to 50000	–	–
CS(=O)(=O)Nc1ccccc1C(=O)NCC(O)CN1CCc2ccccc2C1 (centres unmarked) [Compound 27]	1000 to 10000	–	–	–	–
CS(=O)(=O)Nc1ccc(C(=O)NCC(O)CN2CCc3ccccc3C2)cc1 (centres unmarked) [Compound 31]	101 to 1000	101 to 1000	10000 to 50000	–	–
NS(=O)(=O)c1cccc(C(=O)NCC(O)CN2CCc3ccccc3C2)c1 (centres unmarked) [Compound 32]	101 to 1000	101 to 1000	> 20000	–	–
NS(=O)(=O)c1ccccc1C(=O)NCC(O)CN1CCc2ccccc2C1 (centres unmarked) [Compound 33]	1000 to 10000	–	–	–	–
CNCCOc1cccc(C(=O)NCC(O)CN2CCc3ccccc3C2)c1 (centres unmarked) [Compound 39]	101 to 1000	1000 to 10000	> 20000	–	–
O=C(NCC(O)CN1CCc2ccccc2C1)c1cccc(C(=O)N2CCOCC2)c1 (centres unmarked) [Compound 46, N-(3-(3,4-dihydroisoquinolin-2(1H)-yl)-2-hydroxypropyl)-3-(morpholine-4-carbonyl)benzamide]	1000 to 10000	–	–	–	–
CCN(c1cccc(C(=O)NCC(O)CN2CCc3ccccc3C2)c1)C1CCOCC1 (centres unmarked) [Compound 47]	101 to 1000	101 to 1000	–	–	–
O=C(NCC(O)CN1CCc2ccccc2C1)c1cccc(OC2CCOCC2)c1 (centres unmarked) [Compound 48]	101 to 1000	101 to 1000	–	–	–
CN(c1cccc(C(=O)NCC(O)CN2CCc3ccccc3C2)c1)C1CCOCC1 (centres unmarked) [Compound 49, N-(3-(3,4-dihydroisoquinolin-2(1H)-yl)-2-hydroxypropyl)-3-(methyl(tetrahydro-2H-pyran-4-yl)amino)benzamide]	101 to 1000	–	–	–	–
O=C(NCC(O)CN1CCc2ccccc2C1)c1cccc(NC2COC2)c1 (centres unmarked) [Compound 50, N-(3-(3,4-dihydroisoquinolin-2(1H)-yl)-2-hydroxypropyl)-3-(oxetan-3-ylamino)benzamide]	101 to 1000	–	–	–	–

Structure (SMILES)	IC50 (PRMT5/MEP50) [nM]	EC50 [1] [nM]	EC50 (Z-138 cell line) [nM]	IC50 (PRMT5/MEP50; PRMT5 biochemical assay) [nM]	further results
O=C(NCC(O)CN1CCc2ccccc2C1)c1cccc(CN2CCOCC2)c1 (centres unmarked) [Compound 51, N-(3-(3,4-dihydroisoquinolin-2(1H)-yl)-2-hydroxypropyl)-3-(morpholinomethyl)benzamide]	101 to 1000	–	–	–	–
CC(Nc1cccc(C(=O)NCC(O)CN2CCc3ccccc3C2)c1)C1CCOCC1 (centres unmarked) [Compound 52, N-(3-(3,4-dihydroisoquinolin-2(1H)-yl)-2-hydroxypropyl)-3-((1-(tetrahydro-2H-pyran-4-yl)ethyl)amino)benzamide]	101 to 1000	–	–	–	–
CC1(C)CC(Nc2cccc(C(=O)NCC(O)CN3CCc4ccccc4C3)c2)CCO1 (centres unmarked) [Compound 53, N-(3-(3,4-dihydroisoquinolin-2(1H)-yl)-2-hydroxypropyl)-3-((2,2-dimethyltetrahydro-2H-pyran-4-yl)amino)benzamide]	101 to 1000	–	–	–	–
COc1cc(NC2CCOCC2)cc(C(=O)NCC(O)CN2CCc3ccccc3C2)c1 (centres unmarked) [Compound 56]	101 to 1000	–	–	–	–
O=C(NCC(O)CN1CCc2ccccc2C1)c1cc(NC2CCOCC2)ccc1F (centres unmarked) [Compound 57, N-(3-(3,4-dihydroisoquinolin-2(1H)-yl)-2-hydroxypropyl)-2-fluoro-5-((tetrahydro-2H-pyran-4-yl)amino)benzamide]	101 to 1000	–	–	–	–
COc1c(NC2COC2)ncnc1C(=O)NC[C@H](O)CN1CCc2ccccc2C1 [Compound 338]	1000 to 10000	–	–	–	–
CCC(=O)N1CCC(Nc2cc(C(=O)NC[C@H](O)CN3CCc4ccccc4C3)ccn2)CC1 [Compound 454]	–	–	–	< 100	EC50 (Z-138 cell line; Cell Titer Glo): < 100 nM
O=C(NC[C@H](O)CN1CCc2ccccc2C1)c1ccnc(NC2CCN(C(=O)C3CCC3)CC2)c1 [Compound 455]	–	–	–	< 100	EC50 (Z-138 cell line; Cell Titer Glo): < 100 nM
CC(NC(=O)c1cc(NC2COC2)ncn1)[C@H](O)CN1CCc2ccccc2C1 (some centres unmarked) [Compound 493]	–	–	–	1000 to 10000	EC50 ([1]; In Cell Western methylation): > 1000 nM
CN(C)C(=O)CN1CC(Nc2cc(C(=O)NC[C@H](O)CN3CCc4ccccc4C3)ncn2)C1 [Compound 623]	–	–	–	< 100	EC50 (Z-138 cell line; Cell Titer Glo): 10000 to 50000 nM
NC1=NC(C(=O)NC[C@H](O)CN2CCc3ccccc3C2)=CC2=NC(CO)CN12 (some centres unmarked) [Compound 625]	–	–	–	101 to 1000	EC50 (Z-138 cell line; Cell Titer Glo): > 5000 nM
CC(=O)N1CCC(Nc2cc(C(=O)NC[C@H](O)CN3Cc4ccccc4C(O)C3)ccn2)CC1 (some centres unmarked) [Compound 680]	–	–	–	> 10000	EC50 ([1]; In Cell Western methylation): > 1000 nM
CC(=O)N1CCC(Nc2cc(C(=O)NC[C@H](O)CN3Cc4ccccc4C(C)C3)ccn2)CC1 (some centres unmarked) [Compound 695]	–	–	–	> 10000	EC50 ([1]; In Cell Western methylation): > 1000 nM
CC(=O)N1CCC(Nc2cc(C(=O)NC[C@H](O)CN3Cc4ccccc4CC3C)ccn2)CC1 (some centres unmarked) [Compound 696]	–	–	–	1000 to 10000	EC50 ([1]; In Cell Western methylation): 101 to 1000 nM
O=C(NCC(F)CN1CCc2ccccc2C1)c1cc(NC2COC2)ncn1 (centres unmarked) [Compound 697]	–	–	–	1000 to 10000	EC50 ([1]; In Cell Western methylation): > 1000 nM
CC(=O)N1CC(Nc2cc(C(=O)NCC(N)CN3CCc4ccccc4C3)ncn2)C1 (centres unmarked) [Compound 699]	–	–	–	101 to 1000	–
CC(=O)N1CCC(Nc2cc(C(=O)NCC(N)CN3CCc4ccccc4C3)ncn2)CC1 (centres unmarked) [Compound 701]	–	–	–	101 to 1000	–
